Measurements taken from the supplement of paper PMC10307832.

Experiments:
Assay in all cases: relative viability (nuclei count vs DMSO), 5 days (fraction); higher = more cells survive
NCI-H647 = system: NCI-H647
Outline: (§1)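 For relative viability, nuclei counts in treated wells were divided by those in vehicle wells. Lung cancer cell lines had been pin-tool dosed in 1536-well plates the day after seeding and cultured for 5 days, then fixed and stained in one step (final 0.05% Triton X-100, 1% formaldehyde, 1 ug/ml Hoechst) and imaged at 4×. Doses were one drug alone or a fixed anchor-drug dose plus five library-drug doses (not always all listed) in √10 steps, and values are duplicate-plate medians.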

NCI-H460 = system: NCI-H460
Outline: as §1

HCC-78 = system: HCC-78
Outline: as §1

A-427 = system: A-427
Outline: as §1

NCI-H661 = system: NCI-H661
Outline: as §1

HCC-15 = system: HCC-15
Outline: as §1

HOP-62 = system: HOP-62
Outline: as §1

PC-14 = system: PC-14
Outline: as §1

EMC-BAC-2 = system: EMC-BAC-2
Outline: as §1

NCI-H2405 = system: NCI-H2405
Outline: as §1

COR-L23 = system: COR-L23
Outline: as §1

## Cc1cn(-c2cc(NC(=O)c3ccc(C)c(Nc4nccc(-c5cccnc5)n4)c3)cc(C(F)(F)F)c2)cn1 [Nilotinib] + Nc1ncn([C@H]2C[C@H](O)[C@@H](CO)O2)c(=O)n1 [Decitabine] (partner 2 µM)
NCI-H647; first compound 0.001 µM
  relative viability: 0.396
NCI-H647; first compound 0.003162 µM
  relative viability: 0.446
NCI-H647; first compound 0.01 µM
  relative viability: 0.573
NCI-H647; first compound 0.03162 µM
  relative viability: 0.448
NCI-H647; first compound 0.1 µM
  relative viability: 0.528
NCI-H460; first compound 0.001 µM
  relative viability: 0.443
NCI-H460; first compound 0.003162 µM
  relative viability: 0.648
NCI-H460; first compound 0.01 µM
  relative viability: 0.56
NCI-H460; first compound 0.03162 µM
  relative viability: 0.325
NCI-H460; first compound 0.1 µM
  relative viability: 0.306
HCC-78; first compound 0.001 µM
  relative viability: 0.702
HCC-78; first compound 0.003162 µM
  relative viability: 0.576
HCC-78; first compound 0.01 µM
  relative viability: 0.666
HCC-78; first compound 0.03162 µM
  relative viability: 0.669
HCC-78; first compound 0.1 µM
  relative viability: 0.658
A-427; first compound 0.001 µM
  relative viability: 0.586
A-427; first compound 0.003162 µM
  relative viability: 0.565
A-427; first compound 0.01 µM
  relative viability: 0.658
A-427; first compound 0.03162 µM
  relative viability: 0.663
A-427; first compound 0.1 µM
  relative viability: 0.695
NCI-H661; first compound 0.001 µM
  relative viability: 0.554
NCI-H661; first compound 0.003162 µM
  relative viability: 0.56
NCI-H661; first compound 0.01 µM
  relative viability: 0.644
NCI-H661; first compound 0.03162 µM
  relative viability: 0.469
NCI-H661; first compound 0.1 µM
  relative viability: 0.546
HCC-15; first compound 0.001 µM
  relative viability: 0.569
HCC-15; first compound 0.003162 µM
  relative viability: 0.77
HCC-15; first compound 0.01 µM
  relative viability: 0.718
HCC-15; first compound 0.03162 µM
  relative viability: 0.481
HCC-15; first compound 0.1 µM
  relative viability: 0.309
HOP-62; first compound 0.003162 µM
  relative viability: 0.276
HOP-62; first compound 0.03162 µM
  relative viability: 0.464
PC-14; first compound 0.001 µM
  relative viability: 0.24
PC-14; first compound 0.003162 µM
  relative viability: 0.263
PC-14; first compound 0.01 µM
  relative viability: 0.27
PC-14; first compound 0.03162 µM
  relative viability: 0.304
PC-14; first compound 0.1 µM
  relative viability: 0.266
EMC-BAC-2; first compound 0.001 µM
  relative viability: 0.974
EMC-BAC-2; first compound 0.003162 µM
  relative viability: 0.996
EMC-BAC-2; first compound 0.01 µM
  relative viability: 1.02
EMC-BAC-2; first compound 0.03162 µM
  relative viability: 0.94
EMC-BAC-2; first compound 0.1 µM
  relative viability: 1
NCI-H2405; first compound 0.001 µM
  relative viability: 0.724
NCI-H2405; first compound 0.003162 µM
  relative viability: 0.815
NCI-H2405; first compound 0.01 µM
  relative viability: 0.798
NCI-H2405; first compound 0.03162 µM
  relative viability: 0.65
NCI-H2405; first compound 0.1 µM
  relative viability: 0.509
COR-L23; first compound 0.001 µM
  relative viability: 0.445
COR-L23; first compound 0.003162 µM
  relative viability: 0.493
COR-L23; first compound 0.01 µM
  relative viability: 0.464
COR-L23; first compound 0.03162 µM
  relative viability: 0.482
COR-L23; first compound 0.1 µM
  relative viability: 0.601
